The values that follow are results of earlier work, collected in US20130090323A1, “HETEROCYCLIC COMPOUNDS AND THEIR USES” (Amgen Inc., priority 2010, published 2013).

One data set has as its target T1, p110δ (Homo sapiens, UniProt O00329).
T1 sequence (O00329 1-1044): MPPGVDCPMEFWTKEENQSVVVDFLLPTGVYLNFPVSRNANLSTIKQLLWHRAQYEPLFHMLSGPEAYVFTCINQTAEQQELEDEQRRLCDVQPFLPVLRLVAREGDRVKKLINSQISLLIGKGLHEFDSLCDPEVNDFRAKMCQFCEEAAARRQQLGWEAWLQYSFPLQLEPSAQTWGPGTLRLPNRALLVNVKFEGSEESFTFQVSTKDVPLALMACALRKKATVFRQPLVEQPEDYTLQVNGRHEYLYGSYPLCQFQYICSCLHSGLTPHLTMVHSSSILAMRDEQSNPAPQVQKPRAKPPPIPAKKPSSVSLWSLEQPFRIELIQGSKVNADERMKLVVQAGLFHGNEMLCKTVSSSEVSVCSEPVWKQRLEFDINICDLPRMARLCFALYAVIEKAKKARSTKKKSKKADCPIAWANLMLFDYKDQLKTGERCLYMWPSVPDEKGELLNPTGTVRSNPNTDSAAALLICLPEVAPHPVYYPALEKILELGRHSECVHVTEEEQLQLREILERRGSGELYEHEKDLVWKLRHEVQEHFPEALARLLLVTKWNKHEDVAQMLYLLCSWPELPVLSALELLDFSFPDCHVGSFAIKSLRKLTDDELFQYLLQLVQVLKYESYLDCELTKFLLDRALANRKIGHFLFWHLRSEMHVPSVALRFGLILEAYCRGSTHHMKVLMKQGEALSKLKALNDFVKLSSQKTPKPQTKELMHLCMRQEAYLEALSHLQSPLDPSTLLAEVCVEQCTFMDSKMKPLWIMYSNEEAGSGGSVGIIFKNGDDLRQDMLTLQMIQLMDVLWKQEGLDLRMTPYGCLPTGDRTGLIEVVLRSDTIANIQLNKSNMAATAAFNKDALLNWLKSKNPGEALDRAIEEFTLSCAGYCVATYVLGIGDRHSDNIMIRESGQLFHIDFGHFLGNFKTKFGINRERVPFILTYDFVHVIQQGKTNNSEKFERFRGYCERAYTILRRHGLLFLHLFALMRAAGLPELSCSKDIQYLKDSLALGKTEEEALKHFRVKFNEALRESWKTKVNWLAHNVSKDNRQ

For data set [1], the system named is murine model of allergic disease. Conditions: absence of functional delta (compound and p110δ D910A mice).
The test system of another data set is murine model of asthma. Conditions: mouse, in vivo.
In data set [2] the test system is mouse model of rheumatoid arthritis. Conditions: in vivo.
For data set [3], the system named is model of systemic lupus erythematosis. Conditions: in vivo.

For `Cc1ccccc1-n1c(Cn2cnc3c(N)ncnc32)nc2cccc(C)c2c1=O` [IC87114], at p110δ, the “inhibition of p110δ” value was “high nanomolar range (triple digit)”. Besides, the “activity against any protein kinases tested” value with protein kinases is reported as “no activity”. Further, the “passive cutaneous anaphylaxis (PCA)” value in data set [1] is on record as “significantly reduced”. Also, the “inflammation and disease in ovalbumin-induced airway inflammation” value with murine model of asthma is “significantly ameliorate inflammation and disease”.
Turning to `O=C1NC(=O)/C(=C\c2ccc3nccnc3c2)S1` [AS 605240], in data set [2], the “efficacy in a mouse model of rheumatoid arthritis” value was “efficacious”. In data set [3], the “onset of disease in a model of systemic lupus erythematosis” value was “delay onset of disease”.
